Test results reported in ChEMBL document CHEMBL3785013, “Novel morpholinoquinoline nucleus clubbed with pyrazoline scaffolds: Synthesis, antibacterial, antitubercular and antimalarial activities” (Eur J Med Chem, 2016).
Values after ≈ are worked out from the molar mass of the structure shown.

What was measured:
Vibrio cholerae = assay: Antibacterial activity against Vibrio cholerae MTCC 3906 after 24 to 48 hrs by broth microdilution method; format: functional
Plasmodium falciparum = assay: Antimalarial activity against Plasmodium falciparum after 48 hrs; format: functional, organism-based
Clostridium tetani = assay: Antibacterial activity against Clostridium tetani MTCC 449 after 24 to 48 hrs by broth microdilution method; format: functional
[1] = system: Schizosaccharomyces pombe; assay: Cytotoxicity against Schizosaccharomyces pombe at 2.5 to 12.5 ug/ml after 17 hrs by trypan blue exclusion method; format: organism-based; details: in vivo
[2] = system: Mycobacterium tuberculosis; assay: Antituberculosis activity against Mycobacterium tuberculosis H37Rv after 2 to 4 weeks by Lowensteine-Jensen method; format: functional
Salmonella typhi = assay: Antibacterial activity against Salmonella typhi MTCC 98 after 24 to 48 hrs by broth microdilution method; format: functional, Salmonella enterica subsp. enterica serovar Typhi; details: Salmonella enterica
Bacillus subtilis = assay: Antibacterial activity against Bacillus subtilis MTCC 441 after 24 to 48 hrs by broth microdilution method; format: functional
Streptococcus pneumoniae = assay: Antibacterial activity against Streptococcus pneumoniae MTCC 1936 after 24 to 48 hrs by broth microdilution method; format: functional
Aspergillus fumigatus = assay: Antifungal activity against Aspergillus fumigatus MTCC 3008 after 24 to 48 hrs by broth microdilution method; format: functional
Candida albicans = assay: Antifungal activity against Candida albicans MTCC 227 after 24 to 48 hrs by broth microdilution method; format: functional
Escherichia coli = assay: Antibacterial activity against Escherichia coli MTCC 443 after 24 to 48 hrs by broth microdilution method; format: functional
[3] = system: Mycobacterium tuberculosis; assay: Antituberculosis activity against Mycobacterium tuberculosis H37Rv at 250 ug/ml incubated for 24 hrs measured after 2 to 4 weeks by Lowensteine-Jensen method; format: functional

Compound	MIC (Vibrio cholerae) [µM]	IC50 (Plasmodium falciparum) [µM]	MIC (Clostridium tetani) [µM]	Activity [1]	MIC [2] [µM]	MIC (Salmonella typhi) [µM]	MIC (Bacillus subtilis) [µM]	MIC (Streptococcus pneumoniae) [µM]	MIC (Aspergillus fumigatus) [µM]	MIC (Candida albicans) [µM]	MIC (Escherichia coli) [µM]	inhibition at 250 µg/mL [3] [%]
Fc1ccc(N2N=C(c3ccc(Br)cc3)CC2c2cc3ccccc3nc2N2CCOCC2)cc1 (stereo not drawn)	470 (≈ 250 µg/mL)	0.015	188 (≈ 99.9 µg/mL)	Non-toxic	47 (≈ 25 µg/mL)	376 (≈ 200 µg/mL)	940 (≈ 500 µg/mL)	188 (≈ 99.9 µg/mL)	940 (≈ 500 µg/mL)	470 (≈ 250 µg/mL)	117 (≈ 62.2 µg/mL)	95
COc1ccc(C2=NN(C(C)=O)C(c3cc4ccccc4nc3N3CCOCC3)C2)cc1 (stereo not drawn)	1160 (≈ 500 µg/mL)	0.034	1160 (≈ 500 µg/mL)	Toxic	–	1160 (≈ 500 µg/mL)	232 (≈ 99.9 µg/mL)	145 (≈ 62.4 µg/mL)	1160 (≈ 500 µg/mL)	2320 (≈ 1000 µg/mL)	232 (≈ 99.9 µg/mL)	45
O=CN1N=C(c2ccc(Br)cc2)CC1c1cc2ccccc2nc1N1CCOCC1 (stereo not drawn)	214 (≈ 99.6 µg/mL)	0.04	429 (≈ 200 µg/mL)	Non-toxic	–	134 (≈ 62.4 µg/mL)	214 (≈ 99.6 µg/mL)	537 (≈ 250 µg/mL)	1070 (≈ 500 µg/mL)	537 (≈ 250 µg/mL)	214 (≈ 99.6 µg/mL)	32
O=C(N[C@H](CO)[C@H](O)c1ccc([N+](=O)[O-])cc1)C(Cl)Cl [CHLORAMPHENICOL]	154 (≈ 49.8 µg/mL)	–	154 (≈ 49.8 µg/mL)	–	–	154 (≈ 49.8 µg/mL)	154 (≈ 49.8 µg/mL)	154 (≈ 49.8 µg/mL)	–	–	154 (≈ 49.8 µg/mL)	–
NC(=S)N1N=C(c2ccc(Cl)cc2)CC1c1cc2ccccc2nc1N1CCOCC1 (stereo not drawn)	221 (≈ 99.9 µg/mL)	4.65	221 (≈ 99.9 µg/mL)	–	–	553 (≈ 250 µg/mL)	221 (≈ 99.9 µg/mL)	553 (≈ 250 µg/mL)	221 (≈ 99.9 µg/mL)	2210 (≈ 1000 µg/mL)	442 (≈ 200 µg/mL)	45
NNC(=O)c1ccncc1 [ISONIAZID]	–	–	–	–	1 (≈ 0.137 µg/mL)	–	–	–	–	–	–	–
CC(=O)N1N=C(c2ccc(Br)cc2)CC1c1cc2ccccc2nc1N1CCOCC1 (stereo not drawn)	1040 (≈ 500 µg/mL)	0.018	208 (≈ 99.7 µg/mL)	Toxic	–	1040 (≈ 500 µg/mL)	1040 (≈ 500 µg/mL)	417 (≈ 200 µg/mL)	208 (≈ 99.7 µg/mL)	2090 (≈ 1000 µg/mL)	521 (≈ 250 µg/mL)	29
CCn1cc(C(=O)O)c(=O)c2cc(F)c(N3CCNCC3)cc21 [NORFLOXACIN]	31 (≈ 9.9 µg/mL)	–	313 (≈ 100 µg/mL)	–	–	31 (≈ 9.9 µg/mL)	310 (≈ 99 µg/mL)	31 (≈ 9.9 µg/mL)	–	–	31 (≈ 9.9 µg/mL)	–
C=C[C@H]1CN2CC[C@H]1C[C@H]2[C@H](O)c1ccnc2ccc(OC)cc12 [QUININE]	–	0.826	–	–	–	–	–	–	–	–	–	–
O=CN1N=C(c2ccc(F)cc2)CC1c1cc2ccccc2nc1N1CCOCC1 (stereo not drawn)	618 (≈ 250 µg/mL)	1.04	1240 (≈ 500 µg/mL)	–	247 (≈ 99.9 µg/mL)	1240 (≈ 500 µg/mL)	154 (≈ 62.3 µg/mL)	247 (≈ 99.9 µg/mL)	> 2470	2470 (≈ 1000 µg/mL)	494 (≈ 200 µg/mL)	93
O=C(O)c1cn(C2CC2)c2cc(N3CCNCC3)c(F)cc2c1=O [CIPROFLOXACIN]	75 (≈ 24.9 µg/mL)	–	–	–	–	75 (≈ 24.9 µg/mL)	150 (≈ 49.7 µg/mL)	150 (≈ 49.7 µg/mL)	–	–	75 (≈ 24.9 µg/mL)	–
CC(=O)N1N=C(c2ccc(F)cc2)CC1c1cc2ccccc2nc1N1CCOCC1 (stereo not drawn)	597 (≈ 250 µg/mL)	1.67	238 (≈ 99.6 µg/mL)	–	–	238 (≈ 99.6 µg/mL)	597 (≈ 250 µg/mL)	238 (≈ 99.6 µg/mL)	1190 (≈ 500 µg/mL)	597 (≈ 250 µg/mL)	597 (≈ 250 µg/mL)	32
CC(=O)N1N=C(c2ccc(Cl)cc2)CC1c1cc2ccccc2nc1N1CCOCC1 (stereo not drawn)	229 (≈ 99.6 µg/mL)	2.87	149 (≈ 64.8 µg/mL)	–	143 (≈ 62.2 µg/mL)	574 (≈ 250 µg/mL)	229 (≈ 99.6 µg/mL)	1150 (≈ 500 µg/mL)	1150 (≈ 500 µg/mL)	1150 (≈ 500 µg/mL)	229 (≈ 99.6 µg/mL)	96
NYSTATIN	–	–	–	–	–	–	–	–	107	107	–	–
Fc1ccc(N2N=C(c3ccc(Cl)cc3)CC2c2cc3ccccc3nc2N2CCOCC2)cc1 (stereo not drawn)	513 (≈ 250 µg/mL)	1.79	1030 (≈ 500 µg/mL)	–	–	410 (≈ 200 µg/mL)	410 (≈ 200 µg/mL)	1030 (≈ 500 µg/mL)	205 (≈ 99.8 µg/mL)	2050 (≈ 1000 µg/mL)	205 (≈ 99.8 µg/mL)	24
NC(=S)N1N=C(c2ccc(Br)cc2)CC1c1cc2ccccc2nc1N1CCOCC1 (stereo not drawn)	201 (≈ 99.8 µg/mL)	0.044	201 (≈ 99.8 µg/mL)	Non-toxic	201 (≈ 99.8 µg/mL)	402 (≈ 200 µg/mL)	402 (≈ 200 µg/mL)	402 (≈ 200 µg/mL)	1010 (≈ 500 µg/mL)	> 2010	201 (≈ 99.8 µg/mL)	90
NC(=S)N1N=C(c2ccc(F)cc2)CC1c1cc2ccccc2nc1N1CCOCC1 (stereo not drawn)	574 (≈ 250 µg/mL)	1.84	1150 (≈ 500 µg/mL)	–	–	143 (≈ 62.3 µg/mL)	1150 (≈ 500 µg/mL)	229 (≈ 99.7 µg/mL)	1150 (≈ 500 µg/mL)	229 (≈ 99.7 µg/mL)	574 (≈ 250 µg/mL)	54
CC1(C)S[C@@H]2[C@H](NC(=O)[C@H](N)c3ccccc3)C(=O)N2[C@H]1C(=O)O [AMPICILLIN]	286 (≈ 99.9 µg/mL)	–	715 (≈ 250 µg/mL)	–	–	286 (≈ 99.9 µg/mL)	715 (≈ 250 µg/mL)	286 (≈ 99.9 µg/mL)	–	–	286 (≈ 99.9 µg/mL)	–
COc1ccc(C2=NN(C=O)C(c3cc4ccccc4nc3N3CCOCC3)C2)cc1 (stereo not drawn)	480 (≈ 200 µg/mL)	1.87	1200 (≈ 500 µg/mL)	–	–	240 (≈ 100 µg/mL)	600 (≈ 250 µg/mL)	240 (≈ 100 µg/mL)	2400 (≈ 1000 µg/mL)	1200 (≈ 500 µg/mL)	480 (≈ 200 µg/mL)	36
COC1=CC(=O)C[C@@H](C)[C@]12Oc1c(Cl)c(OC)cc(OC)c1C2=O [GRISEOFULVIN]	–	–	–	–	–	–	–	–	283 (≈ 99.8 µg/mL)	1150 (≈ 405 µg/mL)	–	–
Fc1ccc(C2=NN(c3ccc(F)cc3)C(c3cc4ccccc4nc3N3CCOCC3)C2)cc1 (stereo not drawn)	132 (≈ 62.1 µg/mL)	3.42	132 (≈ 62.1 µg/mL)	–	–	212 (≈ 99.8 µg/mL)	212 (≈ 99.8 µg/mL)	265 (≈ 125 µg/mL)	2120 (≈ 1000 µg/mL)	212 (≈ 99.8 µg/mL)	265 (≈ 125 µg/mL)	48
COc1ccc(C2=NN(c3ccc(F)cc3)C(c3cc4ccccc4nc3N3CCOCC3)C2)cc1 (stereo not drawn)	518 (≈ 250 µg/mL)	0.051	1040 (≈ 500 µg/mL)	Non-toxic	–	207 (≈ 99.9 µg/mL)	518 (≈ 250 µg/mL)	259 (≈ 125 µg/mL)	207 (≈ 99.9 µg/mL)	518 (≈ 250 µg/mL)	414 (≈ 200 µg/mL)	33
O=CN1N=C(c2ccc(Cl)cc2)CC1c1cc2ccccc2nc1N1CCOCC1 (stereo not drawn)	237 (≈ 99.8 µg/mL)	0.028	475 (≈ 200 µg/mL)	Toxic	59 (≈ 24.8 µg/mL)	1190 (≈ 500 µg/mL)	1190 (≈ 500 µg/mL)	148 (≈ 62.3 µg/mL)	> 2380	2380 (≈ 1000 µg/mL)	237 (≈ 99.8 µg/mL)	94
COc1ccc(C2=NN(C(N)=S)C(c3cc4ccccc4nc3N3CCOCC3)C2)cc1 (stereo not drawn)	558 (≈ 250 µg/mL)	3.24	446 (≈ 200 µg/mL)	–	–	223 (≈ 99.8 µg/mL)	446 (≈ 200 µg/mL)	223 (≈ 99.8 µg/mL)	223 (≈ 99.8 µg/mL)	1120 (≈ 500 µg/mL)	558 (≈ 250 µg/mL)	63
CO[C@H]1/C=C/O[C@@]2(C)Oc3c(C)c(O)c4c(O)c(c(/C=N/N5CCN(C)CC5)c(O)c4c3C2=O)NC(=O)/C(C)=C\C=C\[C@H](C)[C@H](O)[C@@H](C)[C@@H](O)[C@@H](C)[C@H](OC(C)=O)[C@@H]1C [RIFAMPIN]	–	–	–	–	48 (≈ 39.5 µg/mL)	–	–	–	–	–	–	98
